Data reported in the Kinase Knowledgebase extract (Sharma et al. 2016).

How the values were obtained:
[1] = system: EGFR (human), P00533 [delE746-A750]; details: hcc827
[2] = system: EGFR (Human), P00533 [T790M/L858R]; details: h1975
EGFR (Human), P00533 [T790M/L858R], sequence (P00533 whole entry T790M/L858R, looked up): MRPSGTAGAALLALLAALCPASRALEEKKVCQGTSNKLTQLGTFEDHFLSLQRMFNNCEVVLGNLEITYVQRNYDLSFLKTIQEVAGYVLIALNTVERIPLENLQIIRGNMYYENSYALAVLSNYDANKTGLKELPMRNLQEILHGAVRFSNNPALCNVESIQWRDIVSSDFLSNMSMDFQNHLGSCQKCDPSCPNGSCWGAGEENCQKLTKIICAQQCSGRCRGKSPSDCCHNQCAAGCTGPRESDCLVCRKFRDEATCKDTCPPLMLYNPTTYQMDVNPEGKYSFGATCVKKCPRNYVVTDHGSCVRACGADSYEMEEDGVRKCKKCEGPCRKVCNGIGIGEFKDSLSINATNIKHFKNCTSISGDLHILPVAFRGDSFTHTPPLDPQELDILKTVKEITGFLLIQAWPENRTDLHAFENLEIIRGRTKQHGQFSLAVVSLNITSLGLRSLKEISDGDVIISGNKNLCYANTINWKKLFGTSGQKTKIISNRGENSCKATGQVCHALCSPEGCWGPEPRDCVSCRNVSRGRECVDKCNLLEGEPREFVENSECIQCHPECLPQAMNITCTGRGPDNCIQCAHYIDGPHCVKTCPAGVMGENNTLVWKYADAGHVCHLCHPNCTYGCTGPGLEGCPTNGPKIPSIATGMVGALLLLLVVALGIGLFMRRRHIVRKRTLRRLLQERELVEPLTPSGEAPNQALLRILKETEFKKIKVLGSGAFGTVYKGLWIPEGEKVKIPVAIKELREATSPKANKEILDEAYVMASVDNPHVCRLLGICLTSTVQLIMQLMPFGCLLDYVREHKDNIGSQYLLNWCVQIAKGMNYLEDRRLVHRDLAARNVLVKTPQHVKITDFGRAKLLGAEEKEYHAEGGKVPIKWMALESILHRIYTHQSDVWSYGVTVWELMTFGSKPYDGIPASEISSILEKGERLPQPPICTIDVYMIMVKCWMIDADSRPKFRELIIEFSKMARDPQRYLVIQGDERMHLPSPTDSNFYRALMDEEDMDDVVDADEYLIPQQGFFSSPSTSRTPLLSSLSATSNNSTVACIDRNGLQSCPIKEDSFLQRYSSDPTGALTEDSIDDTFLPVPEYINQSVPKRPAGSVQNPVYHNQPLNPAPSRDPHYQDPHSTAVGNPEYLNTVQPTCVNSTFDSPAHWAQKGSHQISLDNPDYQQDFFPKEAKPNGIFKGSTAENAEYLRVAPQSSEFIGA

EGFR (human), P00533 [delE746-A750], sequence (P00533 whole entry, looked up, stated change not applied): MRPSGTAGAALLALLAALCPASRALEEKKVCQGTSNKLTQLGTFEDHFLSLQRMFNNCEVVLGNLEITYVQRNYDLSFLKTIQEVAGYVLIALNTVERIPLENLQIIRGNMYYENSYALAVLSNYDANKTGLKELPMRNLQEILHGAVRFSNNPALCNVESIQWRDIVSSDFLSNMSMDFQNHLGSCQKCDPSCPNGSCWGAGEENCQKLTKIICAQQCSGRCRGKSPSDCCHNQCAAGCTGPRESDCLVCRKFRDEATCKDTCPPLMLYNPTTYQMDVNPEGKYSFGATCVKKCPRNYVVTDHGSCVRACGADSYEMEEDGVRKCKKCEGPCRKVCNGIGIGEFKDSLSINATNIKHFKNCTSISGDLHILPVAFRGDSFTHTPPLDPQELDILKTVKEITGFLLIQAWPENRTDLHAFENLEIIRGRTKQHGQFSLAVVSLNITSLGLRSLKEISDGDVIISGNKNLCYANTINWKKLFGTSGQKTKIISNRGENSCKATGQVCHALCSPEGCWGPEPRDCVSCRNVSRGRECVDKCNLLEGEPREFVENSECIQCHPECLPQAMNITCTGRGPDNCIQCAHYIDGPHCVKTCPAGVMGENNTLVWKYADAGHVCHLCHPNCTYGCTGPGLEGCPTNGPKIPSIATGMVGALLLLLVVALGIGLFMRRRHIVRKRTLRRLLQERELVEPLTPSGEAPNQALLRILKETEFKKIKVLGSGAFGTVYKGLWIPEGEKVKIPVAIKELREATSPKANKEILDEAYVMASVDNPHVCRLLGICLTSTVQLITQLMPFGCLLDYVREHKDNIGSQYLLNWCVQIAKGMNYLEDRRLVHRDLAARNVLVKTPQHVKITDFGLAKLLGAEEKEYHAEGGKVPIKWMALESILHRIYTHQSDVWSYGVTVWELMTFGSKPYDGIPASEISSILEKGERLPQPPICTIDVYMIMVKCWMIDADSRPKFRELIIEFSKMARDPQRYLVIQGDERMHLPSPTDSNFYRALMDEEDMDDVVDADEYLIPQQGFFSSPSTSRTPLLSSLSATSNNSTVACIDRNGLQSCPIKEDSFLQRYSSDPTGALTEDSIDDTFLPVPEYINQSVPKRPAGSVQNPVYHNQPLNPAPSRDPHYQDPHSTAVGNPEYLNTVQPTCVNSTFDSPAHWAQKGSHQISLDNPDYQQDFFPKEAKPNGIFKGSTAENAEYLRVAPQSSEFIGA

`C=CC(=O)Nc1cccc(Oc2nc(Nc3ccc(OC)c(OC)c3OC)ncc2Cl)c1` was tested, and the GI50 [1] was 100 to 500 nM and the GI50 [2] was 100 to 500 nM.

`C=CC(=O)Nc1cccc(Nc2nc(Nc3cccc(OC)c3OC)ncc2C(F)(F)F)c1` showed a GI50 [1] of 500 to 1000 nM.

`C=CC(=O)Nc1cccc(Nc2nc(Nc3ccc(OC)cc3OC)ncc2Cl)c1` was tested, and the GI50 [1] was 500 to 1000 nM.

`C=CC(=O)Nc1cccc(Nc2nc(Nc3ccccc3OC)ncc2C(F)(F)F)c1` was tested, and the GI50 [1] was 10 to 100 nM and the GI50 [2] was 100 to 500 nM.

Work on `C=CC(=O)Nc1cccc(Oc2nc(Nc3ccccc3OC)ncc2F)c1` yielded a GI50 [1] of 100 to 500 nM.

Work on `C=CC(=O)Nc1cccc(Nc2nc(Nc3ccccc3OC)ncc2Cl)c1` yielded a GI50 [1] of 500 to 1000 nM.

`C=CC(=O)Nc1cccc(Oc2nc(Nc3ccc(OC)cc3OC)ncc2C(F)(F)F)c1` gave a GI50 [1] of 100 to 500 nM and a GI50 [2] of 100 to 500 nM.

`C=CC(=O)Nc1cccc(Oc2nc(Nc3cccc(OC)c3OC)ncc2Br)c1` gave a GI50 [1] of 500 to 1000 nM and a GI50 [2] of 500 to 1000 nM.

With `C=CC(=O)Nc1cccc(Nc2nc(Nc3ccccc3OC)ncc2Br)c1` the GI50 [1] was 500 to 1000 nM and the GI50 [2] was 500 to 1000 nM.

`C=CC(=O)Nc1cccc(Nc2nc(Nc3ccc(OC)c(OC)c3OC)ncc2Br)c1` was tested, and the GI50 [1] was 100 to 500 nM.

In the case of `C=CC(=O)Nc1cccc(Oc2nc(Nc3ccccc3OC)ncc2C(F)(F)F)c1`, the GI50 [1] was 100 to 500 nM.

For `C=CC(=O)Nc1cccc(Nc2nc(Nc3ccc(OC)cc3OC)ncc2Br)c1`, the GI50 [1] was 100 to 500 nM.

In the case of `C=CC(=O)Nc1cccc(Oc2nc(Nc3ccc(OC)cc3OC)ncc2Br)c1`, the GI50 [2] was 500 to 1000 nM.

`C=CC(=O)Nc1cccc(Oc2nc(Nc3ccc(OC)c(OC)c3OC)ncc2C(F)(F)F)c1` showed a GI50 [1] of 100 to 500 nM and a GI50 [2] of 100 to 500 nM.

Molecule `C=CC(=O)Nc1cccc(Nc2nc(Nc3ccc(OC)c(OC)c3OC)ncc2C(F)(F)F)c1` has a GI50 [1] of 10 to 100 nM and a GI50 [2] of 100 to 500 nM.
